In general, IC50 refers to the point on the concentration scale where inhibition reaches its midpoint. Lower therefore signals greater potency in that assay.

Active and inactive are the calls of the source. The calls are words filed in the database; no cut-off is given here. A value given as a limit tells only on which side of the number the result lay.

4 compounds from ChEMBL document CHEMBL6121021, “Design and Synthesis of Topoisomerases-Histone Deacetylase Dual Targeted Quinoline-Bridged Hydroxamates as Anticancer Agents” (J Med Chem, 2025) can be followed below.

Data set [1] is described as follows: Toxicity in athymic nude Crl:NU-Foxn1nu mouse xenografted with human A549 cells assessed as animal survival at 30 mg/kg, po administered twice a week for 1 month. It is filed as organism-based. The note with it: in vivo, 730 h, time 1 months. A general note: In xenograft studies the graft and the host belong to different species.
Another data set concerns A549. Nature of the data set: cells. The following applies: Homo sapiens, A549, 48 h.
A short description of data set [2]: Antiproliferative activity against human NCI-H1975 cells harboring EGFR T790M mutant incubated for 48 hrs by MTT assay. Format: functional, cell-based. The following applies: NCI-H1975, 48 h. On the technique in general: Formazan colour is commonly taken as a measure of viable cells.
Data set [3] addresses Polyamine deacetylase HDAC10 (Homo sapiens, UniProt Q969S8). The experiment in a line: Inhibition of HDAC10 (unknown origin).
Another data set has as its target Histone deacetylase 11 (Homo sapiens, UniProt Q96DB2). Nature of the data set: Inhibition of HDAC11 (unknown origin).
The target of another data set is Histone deacetylase 2 (Homo sapiens, UniProt Q92769). Nature of the data set: Inhibition of HDAC2 (unknown origin).
Chain of Histone deacetylase 2 (Q92769 whole entry): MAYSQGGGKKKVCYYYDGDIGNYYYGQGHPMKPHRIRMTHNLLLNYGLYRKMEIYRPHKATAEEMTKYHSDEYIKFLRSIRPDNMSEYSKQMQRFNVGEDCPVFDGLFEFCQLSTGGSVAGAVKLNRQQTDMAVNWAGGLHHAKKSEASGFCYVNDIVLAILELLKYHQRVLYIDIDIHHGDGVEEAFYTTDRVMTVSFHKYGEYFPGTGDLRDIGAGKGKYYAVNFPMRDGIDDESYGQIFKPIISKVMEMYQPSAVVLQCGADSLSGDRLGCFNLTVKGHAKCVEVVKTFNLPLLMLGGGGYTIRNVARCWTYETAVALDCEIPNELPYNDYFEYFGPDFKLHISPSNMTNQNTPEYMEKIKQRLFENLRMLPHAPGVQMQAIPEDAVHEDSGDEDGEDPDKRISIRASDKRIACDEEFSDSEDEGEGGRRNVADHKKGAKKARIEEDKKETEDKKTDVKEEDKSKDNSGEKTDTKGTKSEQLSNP
The next data set has as its target Histone deacetylase 3 (Homo sapiens, UniProt O15379). The experiment in a line: Inhibition of HDAC3 (unknown origin).
In data set [4] the target is T1, Histone deacetylase 1 (Homo sapiens, UniProt Q13547). Nature of the data set: Inhibition of HDAC1 (unknown origin).
T1 sequence (Q13547 whole entry): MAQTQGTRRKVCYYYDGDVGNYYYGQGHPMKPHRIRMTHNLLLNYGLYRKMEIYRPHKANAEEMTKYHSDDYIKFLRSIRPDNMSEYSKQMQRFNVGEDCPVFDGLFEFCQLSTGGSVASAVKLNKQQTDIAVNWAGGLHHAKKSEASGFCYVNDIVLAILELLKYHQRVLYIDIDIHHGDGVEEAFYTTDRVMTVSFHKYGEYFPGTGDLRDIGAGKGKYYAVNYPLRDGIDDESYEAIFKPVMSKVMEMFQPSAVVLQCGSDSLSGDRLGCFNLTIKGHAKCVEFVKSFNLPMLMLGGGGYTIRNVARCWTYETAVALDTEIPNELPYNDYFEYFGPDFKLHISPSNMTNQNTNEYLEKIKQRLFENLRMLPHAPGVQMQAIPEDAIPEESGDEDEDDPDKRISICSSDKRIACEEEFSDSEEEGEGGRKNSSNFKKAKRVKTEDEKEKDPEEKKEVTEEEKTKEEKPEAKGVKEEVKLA
Data set [5] addresses T2, Protein deacetylase HDAC6 (Homo sapiens, UniProt Q9UBN7).
T2 sequence (Q9UBN7 whole entry): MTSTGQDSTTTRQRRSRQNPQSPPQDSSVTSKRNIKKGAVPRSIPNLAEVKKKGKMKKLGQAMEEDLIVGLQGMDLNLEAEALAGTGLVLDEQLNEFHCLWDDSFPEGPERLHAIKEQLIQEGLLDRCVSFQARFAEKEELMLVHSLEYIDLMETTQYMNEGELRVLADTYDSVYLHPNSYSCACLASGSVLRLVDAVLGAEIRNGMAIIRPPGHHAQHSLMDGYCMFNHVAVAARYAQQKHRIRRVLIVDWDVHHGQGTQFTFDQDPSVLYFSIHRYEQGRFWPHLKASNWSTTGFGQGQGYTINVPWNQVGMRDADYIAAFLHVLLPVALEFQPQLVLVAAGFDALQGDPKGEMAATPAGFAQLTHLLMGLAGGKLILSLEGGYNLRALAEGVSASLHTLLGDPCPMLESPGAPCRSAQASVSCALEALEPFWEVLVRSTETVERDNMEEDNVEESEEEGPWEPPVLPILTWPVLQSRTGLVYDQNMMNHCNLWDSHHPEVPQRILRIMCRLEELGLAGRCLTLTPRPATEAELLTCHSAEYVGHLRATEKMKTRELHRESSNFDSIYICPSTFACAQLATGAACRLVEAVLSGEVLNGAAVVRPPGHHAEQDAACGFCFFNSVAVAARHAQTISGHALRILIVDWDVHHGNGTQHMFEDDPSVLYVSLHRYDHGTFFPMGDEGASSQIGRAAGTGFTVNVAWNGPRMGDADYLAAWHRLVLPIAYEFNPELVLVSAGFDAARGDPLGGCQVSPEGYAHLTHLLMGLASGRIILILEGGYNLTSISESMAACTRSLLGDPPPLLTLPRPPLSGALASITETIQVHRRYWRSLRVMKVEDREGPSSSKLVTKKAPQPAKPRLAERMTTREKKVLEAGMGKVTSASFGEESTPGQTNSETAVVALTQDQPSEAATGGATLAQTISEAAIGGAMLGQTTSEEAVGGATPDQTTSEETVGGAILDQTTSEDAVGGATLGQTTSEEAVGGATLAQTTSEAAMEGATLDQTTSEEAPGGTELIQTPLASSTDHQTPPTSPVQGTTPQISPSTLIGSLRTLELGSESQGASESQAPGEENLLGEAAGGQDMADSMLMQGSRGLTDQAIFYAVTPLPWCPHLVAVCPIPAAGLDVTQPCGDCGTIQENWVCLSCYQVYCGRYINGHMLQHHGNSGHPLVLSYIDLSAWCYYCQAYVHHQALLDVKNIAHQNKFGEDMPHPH
The experiment in a line: Inhibition of HDAC6 (unknown origin).

The target of another data set is T3, Histone deacetylase 8 (Homo sapiens, UniProt Q9BY41).
T3 sequence (Q9BY41 whole entry): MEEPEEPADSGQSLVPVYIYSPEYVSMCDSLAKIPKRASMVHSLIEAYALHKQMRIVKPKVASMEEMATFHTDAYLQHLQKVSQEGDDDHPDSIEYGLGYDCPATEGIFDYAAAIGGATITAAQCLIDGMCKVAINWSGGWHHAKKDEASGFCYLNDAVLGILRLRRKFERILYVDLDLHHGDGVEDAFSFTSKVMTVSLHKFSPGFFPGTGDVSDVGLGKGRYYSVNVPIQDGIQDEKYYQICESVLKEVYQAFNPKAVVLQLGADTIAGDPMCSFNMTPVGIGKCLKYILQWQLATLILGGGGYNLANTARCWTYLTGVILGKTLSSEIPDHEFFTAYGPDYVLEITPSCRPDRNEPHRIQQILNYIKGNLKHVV
The experiment in a line: Inhibition of HDAC8 (unknown origin).

A further data set addresses Histone deacetylase 4 (Homo sapiens, UniProt P56524). Nature of the data set: Inhibition of HDAC4 (unknown origin).
Data set [6] concerns the target T1, Histone deacetylase 1. The experiment in a line: Inhibition of HDAC1 (unknown origin) incubated for 48 hrs.
The test system of a further data set is NCI-H1299. Nature of the data set: cells. It is filed as functional, cell-based. The note with it: Homo sapiens, NCI-H1299, 48 h.
Another data set has as its system HT-29. Nature of the data set: cells. Format: functional, cell-based. The following applies: Homo sapiens, HT-29, 48 h.
The subject of data set [7] is MDA-MB-231. Nature of the data set: Anti-cancer activity against human MDA-MB-231 cells assessed as decrease in PCNA level at 5 uM incubated for 48 hrs by immunoblot analysis. Format: functional, cell-based. (In general: Immunoblotting shows a protein as a band on a membrane.)
Data set [8] concerns MDA-MB-231. Nature of the data set: cells. The note with it: Homo sapiens, MDA-MB-231, 48 h. Format: functional, cell-based.
For the next data set, the system named is MCF7. Nature of the data set: cells. Format: functional, cell-based. The following applies: Homo sapiens, MCF7, 48 h.

Chain of Histone deacetylase 3 (O15379 whole entry): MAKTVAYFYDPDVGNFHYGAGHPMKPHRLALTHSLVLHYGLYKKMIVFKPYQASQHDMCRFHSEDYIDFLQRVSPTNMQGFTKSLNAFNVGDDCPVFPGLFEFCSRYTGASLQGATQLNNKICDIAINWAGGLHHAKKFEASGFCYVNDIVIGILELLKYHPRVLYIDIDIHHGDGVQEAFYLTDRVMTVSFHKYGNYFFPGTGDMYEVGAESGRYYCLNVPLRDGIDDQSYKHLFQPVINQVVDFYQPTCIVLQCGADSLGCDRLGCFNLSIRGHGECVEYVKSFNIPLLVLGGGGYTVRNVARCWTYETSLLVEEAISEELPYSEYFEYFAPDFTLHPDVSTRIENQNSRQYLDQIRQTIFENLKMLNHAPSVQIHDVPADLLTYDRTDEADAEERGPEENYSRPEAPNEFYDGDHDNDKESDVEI
Chain of Histone deacetylase 4 (P56524 whole entry): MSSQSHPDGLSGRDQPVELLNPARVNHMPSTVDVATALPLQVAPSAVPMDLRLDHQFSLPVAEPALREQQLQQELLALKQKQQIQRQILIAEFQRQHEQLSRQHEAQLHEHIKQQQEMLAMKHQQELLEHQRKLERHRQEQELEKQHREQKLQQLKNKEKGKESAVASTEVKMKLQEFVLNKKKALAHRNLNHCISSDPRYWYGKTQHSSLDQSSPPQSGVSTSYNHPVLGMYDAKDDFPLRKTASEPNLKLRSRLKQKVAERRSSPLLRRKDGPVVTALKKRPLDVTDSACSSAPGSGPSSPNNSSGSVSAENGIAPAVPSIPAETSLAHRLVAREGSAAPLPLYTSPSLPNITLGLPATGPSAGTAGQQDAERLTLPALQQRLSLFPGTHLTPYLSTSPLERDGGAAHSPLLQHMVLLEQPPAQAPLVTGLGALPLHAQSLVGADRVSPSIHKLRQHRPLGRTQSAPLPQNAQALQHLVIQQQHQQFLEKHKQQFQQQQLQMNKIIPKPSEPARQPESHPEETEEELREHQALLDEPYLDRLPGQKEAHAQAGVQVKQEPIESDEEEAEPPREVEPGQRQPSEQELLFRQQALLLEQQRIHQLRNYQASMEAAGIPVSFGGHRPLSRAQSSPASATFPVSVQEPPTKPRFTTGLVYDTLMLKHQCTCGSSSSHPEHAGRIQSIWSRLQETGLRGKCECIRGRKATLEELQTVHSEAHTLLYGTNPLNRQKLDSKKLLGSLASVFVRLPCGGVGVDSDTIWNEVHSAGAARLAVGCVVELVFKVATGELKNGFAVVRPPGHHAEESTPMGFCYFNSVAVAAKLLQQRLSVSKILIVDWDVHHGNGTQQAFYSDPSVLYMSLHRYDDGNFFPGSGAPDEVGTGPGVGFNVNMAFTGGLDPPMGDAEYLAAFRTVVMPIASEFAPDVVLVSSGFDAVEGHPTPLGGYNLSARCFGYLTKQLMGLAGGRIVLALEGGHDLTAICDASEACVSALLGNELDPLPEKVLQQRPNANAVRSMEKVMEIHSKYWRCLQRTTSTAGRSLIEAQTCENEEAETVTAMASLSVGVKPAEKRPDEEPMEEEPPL
Chain of Histone deacetylase 11 (Q96DB2 whole entry): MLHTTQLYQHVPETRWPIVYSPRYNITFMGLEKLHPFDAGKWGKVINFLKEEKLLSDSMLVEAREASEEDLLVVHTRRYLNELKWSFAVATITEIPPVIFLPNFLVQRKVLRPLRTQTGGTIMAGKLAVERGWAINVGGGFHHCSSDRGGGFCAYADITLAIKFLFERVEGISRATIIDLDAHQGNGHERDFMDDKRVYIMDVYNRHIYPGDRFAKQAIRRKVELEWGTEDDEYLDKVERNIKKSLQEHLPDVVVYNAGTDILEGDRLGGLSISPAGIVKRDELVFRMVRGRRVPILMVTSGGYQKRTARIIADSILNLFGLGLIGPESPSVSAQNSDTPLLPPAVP
Chain of Polyamine deacetylase HDAC10 (Q969S8 whole entry): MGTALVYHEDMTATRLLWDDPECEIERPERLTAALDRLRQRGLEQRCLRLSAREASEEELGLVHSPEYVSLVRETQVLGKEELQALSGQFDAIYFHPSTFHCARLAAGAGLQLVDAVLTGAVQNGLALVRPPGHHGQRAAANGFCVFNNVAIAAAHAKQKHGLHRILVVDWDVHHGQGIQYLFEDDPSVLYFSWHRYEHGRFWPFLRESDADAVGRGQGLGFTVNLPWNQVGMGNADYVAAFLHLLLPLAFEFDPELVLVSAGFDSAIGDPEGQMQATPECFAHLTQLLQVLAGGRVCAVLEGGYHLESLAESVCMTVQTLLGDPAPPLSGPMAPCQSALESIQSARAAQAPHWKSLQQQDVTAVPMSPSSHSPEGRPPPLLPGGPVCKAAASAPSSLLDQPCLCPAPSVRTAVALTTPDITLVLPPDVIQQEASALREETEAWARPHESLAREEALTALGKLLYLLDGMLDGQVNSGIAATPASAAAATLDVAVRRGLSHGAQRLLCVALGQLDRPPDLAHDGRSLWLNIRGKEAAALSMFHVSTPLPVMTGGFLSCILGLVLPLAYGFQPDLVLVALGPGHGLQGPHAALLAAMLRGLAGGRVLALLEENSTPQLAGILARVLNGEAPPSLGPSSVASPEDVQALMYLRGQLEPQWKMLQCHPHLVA

As for `O=C(CCCCCCC(=O)Nc1ccccc1)NO` [VORINOSTAT], in data set [1], the Activity entry is listed as “Non-toxic”. Moreover, the IC50 with A549 amounted to 7760 nM; in data set [2] it was 1030 nM.

For `CN1c2ccccc2C(=O)N2[C@H](C(=O)Nc3ccc(C(=O)Nc4ccccc4N)cc3)Cc3c([nH]c4ccccc34)[C@@H]12`, the IC50 in data set [3] was 5.5 nM; on Histone deacetylase 11, > 100 nM; against Histone deacetylase 2 it was 10 nM; against Histone deacetylase 3, 27 nM; at Histone deacetylase 1 [4], 0.16 nM; in data set [5] it was > 100 nM. Also, the IC50 on Histone deacetylase 8 and on Histone deacetylase 4 was > 100 nM in each case.

Consider `O=C(CCCCCOc1ccc(-c2nc3ccccc3c3cc(-c4ccccc4)nn23)cc1)NO`, for which, at Histone deacetylase 1 [6], the midpoint of inhibition, the IC50, lay at 790 nM.

With `CC[C@@]1(O)C(=O)OCc2c1cc1n(c2=O)Cc2cc3ccccc3nc2-1` [CAMPTOTHECIN], the IC50 turned out to be 5220 nM in the data set on NCI-H1299; 6870 nM with HT-29; 7360 nM in the data set on MDA-MB-231 [8]; 5670 nM in the data set on MCF7; 6860 nM in the data set with A549. Further, the outcome in the data set with MDA-MB-231 [7] was inactive.
